Source: patent publication US20250129070A1, “BIFUNCTIONAL ANDROGEN RECEPTOR COMPOUNDS” (priority 2023, published 2025)

Columns and labels:
[1] = tested on: VCaP cells; assay: VCaP growth inhibition assay; type: cell-based; conditions: 30 pM R1881, 9 days, CTG
Outline: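 VCaP cells in phenol red-free DMEM/5% CSS, pre-incubated 72 h, then stimulated with R1881 (final 30 pM) and treated with 1:5 serial dilutions (final 100 nM to 10 fM) for 9 days at 37 °C. Viability by CellTiter-Glo luminescence; IC50 from 4-parameter logistic fit of RLU vs concentration.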

[2] = tested on: AR / CBP ternary complex; assay: Ternary complex formation assay (sandwich ELISA, AR capture / CBP detection) in VCaP cell lysates; type: cell-based; conditions: 1.5 hours treatment, sandwich ELISA (AR capture, CBP or p300 detection)
Outline: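 VCaP cells (50K/well, 5% charcoal-stripped FBS, ≥3 days) treated with bifunctional compound for 1.5 h, then lysed 30 min at 4 °C. AR captured on anti-AR (AR 441) plates; bound CBP or p300 detected by rabbit mAb plus HRP secondary. QuantaRed chemifluorescence read at ex 570/em 585, immediately and at 5 and 15 min.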

Row | Structure (SMILES) | IC50 [1] [nM] | EC50 [2] [nM]
1 | CC(=O)N1CCc2c(c(Nc3ccc(-c4cnn(C)c4)cc3F)nn2C2CN(C3CCN(c4ncc(C(=O)NC5C(C)(C)C(Oc6ccc(C#N)c(Cl)c6)C5(C)C)cn4)CC3)C2)C1 (stereo not shown) [Compound 5, 2-[4-[3-[5-acetyl-3-[2-fluoro-4-(1-methylpyrazol-4-yl)anilino]-6,7-dihydro-4H-pyrazolo[4,3-c]pyridin-1-yl]azetidin-1-yl]-1-piperidyl]-N-[3-(3-chloro-4-cyano-phenoxy)-2,2,4,4-tetramethyl-cyclobutyl]pyrimidine-5-carboxamide] | > 100 | > 100
2 | C[C@@H]1CC(=O)Nc2cccc(-c3ccc4c(c3)c(-c3cnn(C)c3)nn4CCCOc3ncc(C(=O)NC4C(C)(C)C(Oc5ccc(C#N)c(Cl)c5)C4(C)C)cn3)c2N1 (stereo partly drawn) [Compound 49, N-[3-(3-chloro-4-cyano-phenoxy)-2,2,4,4-tetramethyl-cyclobutyl]-2-[3-[5-[(4R)-4-methyl-2-oxo-1,3,4,5-tetrahydro-1,5-benzodiazepin-6-yl]-3-(1-methylpyrazol-4-yl)indazol-1-yl]propoxy]pyrimidine-5-carboxamide] | 1 to 100 | > 100
3 | CC(=O)N1CCc2c(c(N3CCCc4cc(-c5cnn(C)c5)c(C(F)F)cc43)nn2C2CCN(CC3CCN(c4ccc5c(n4)CN(C4C(C)(C)C(Oc6ccc(C#N)c(Cl)c6)C4(C)C)C5=O)CC3)CC2)C1 (stereo not shown) [Compound 296, 4-[3-[2-[4-[[4-[5-acetyl-3-[7-(difluoromethyl)-6-(1-methylpyrazol-4-yl)-3,4-dihydro-2H-quinolin-1-yl]-6,7-dihydro-4H-pyrazolo[4,3-c]pyridin-1-yl]-1-piperidyl]methyl]-1-piperidyl]-5-oxo-7H-pyrrolo[3,4-b]pyridin-6-yl]-2,2,4,4-tetramethyl-cyclobutoxy]-2-chloro-benzonitrile] | 0.1 to 1 | < 1
4 | CC(=O)N1CCc2c(c(N3CCCc4cc(-c5cnn(C)c5)c(C(F)F)cc43)nn2C2CCC(C3CCC4(CC3)CN(c3ncc(C(=O)NC5C(C)(C)C(Oc6ccc(C#N)c(Cl)c6)C5(C)C)cn3)C4)CC2)C1 (stereo not shown) [Compound 377, 2-[7-[4-[5-acetyl-3-[7-(difluoromethyl)-6-(1-methylpyrazol-4-yl)-3,4-dihydro-2H-quinolin-1-yl]-6,7-dihydro-4H-pyrazolo[4,3-c]pyridin-1-yl]cyclohexyl]-2-azaspiro[3.5]nonan-2-yl]-N-[3-(3-chloro-4-cyano-phenoxy)-2,2,4,4-tetramethyl-cyclobutyl]pyrimidine-5-carboxamide] | 1 to 100 | 1 to 10
5 | CC(=O)N1CCc2c(c(N3CCCc4cc(-c5cnn(C)c5)c(C(F)F)cc43)nn2C2CCN(C(=O)C3CCN(c4ccc(C(=O)NC5C(C)(C)C(Oc6ccc(C#N)c(Cl)c6)C5(C)C)nn4)CC3)CC2)C1 (stereo not shown) [Compound 114, 6-[4-[4-[5-acetyl-3-[7-(difluoromethyl)-6-(1-methylpyrazol-4-yl)-3,4-dihydro-2H-quinolin-1-yl]-6,7-dihydro-4H-pyrazolo[4,3-c]pyridin-1-yl]piperidine-1-carbonyl]-1-piperidyl]-N-[3-(3-chloro-4-cyano-phenoxy)-2,2,4,4-tetramethyl-cyclobutyl]pyridazine-3-carboxamide] | ≤ 0.1 | < 1

Second part, the compound after the results:

Row | IC50 [1] [nM] | EC50 [2] [nM] | Structure (SMILES)
6 | ≤ 0.1 | < 1 | COc1cc(OC2C(C)(C)C(NC(=O)c3ccc(N4CC5(CCN(C6CCC(n7nc(N8CCCc9cc(-c%10cnn(C)c%10)c(C(F)F)cc98)c8c7CCN(C(C)=O)C8)CC6)CC5)C4)cc3)C2(C)C)ccc1C#N (stereo not shown) [Compound 288, 4-[7-[4-[5-acetyl-3-[7-(difluoromethyl)-6-(1-methylpyrazol-4-yl)-3,4-dihydro-2H-quinolin-1-yl]-6,7-dihydro-4H-pyrazolo[4,3-c]pyridin-1-yl]cyclohexyl]-2,7-diazaspiro[3.5]nonan-2-yl]-N-[3-(4-cyano-3-methoxy-phenoxy)-2,2,4,4-tetramethyl-cyclobutyl]benzamide]
7 | 0.1 to 1 | < 1 | CC(=O)N1CCc2c(c(N3CCCc4cc(-c5cnn(C)c5)c(C)cc43)nn2C2CCN(CC3CCN(c4ncc(C(=O)NC5C(C)(C)C(Oc6ccc(C#N)c(C)c6)C5(C)C)cn4)CC3(C)C)CC2)C1 (stereo not shown) [Compound 466, 2-[4-[[4-[5-acetyl-3-[7-methyl-6-(1-methylpyrazol-4-yl)-3,4-dihydro-2H-quinolin-1-yl]-6,7-dihydro-4H-pyrazolo[4,3-c]pyridin-1-yl]-1-piperidyl]methyl]-3,3-dimethyl-1-piperidyl]-N-[3-(4-cyano-3-methyl-phenoxy)-2,2,4,4-tetramethyl-cyclobutyl]pyrimidine-5-carboxamide]
8 | 0.1 to 1 | < 1 | CC(=O)N1CCc2c(c(-c3cccc4cc(-c5cnn(CC6CCN(c7ncc(C(=O)NC8C(C)(C)C(Oc9ccc(C#N)c(Cl)c9)C8(C)C)cn7)CC6)c5)ncc34)nn2C)C1 (stereo not shown) [Compound 215, 2-[4-[[4-[8-(5-acetyl-1-methyl-6,7-dihydro-4H-pyrazolo[4,3-c]pyridin-3-yl)-3-isoquinolyl]pyrazol-1-yl]methyl]-1-piperidyl]-N-[3-(3-chloro-4-cyano-phenoxy)-2,2,4,4-tetramethyl-cyclobutyl]pyrimidine-5-carboxamide]
9 | 0.1 to 1 | < 1 | CC(=O)N1CCc2c(c(N3CCCc4cc(-c5cnn(C)c5)c(C(F)F)cc43)nn2C2CCN(C3CC4(CC(Oc5ncc(C(=O)NC6C(C)(C)C(Oc7ccc(C#N)c(Cl)c7)C6(C)C)cn5)C4)C3)CC2)C1 (stereo not shown) [Compound 385, 2-[6-[4-[5-acetyl-3-[7-(difluoromethyl)-6-(1-methylpyrazol-4-yl)-3,4-dihydro-2H-quinolin-1-yl]-6,7-dihydro-4H-pyrazolo[4,3-c]pyridin-1-yl]-1-piperidyl]spiro[3.3]heptan-2-yl]oxy-N-[3-(3-chloro-4-cyano-phenoxy)-2,2,4,4-tetramethyl-cyclobutyl]pyrimidine-5-carboxamide]
10 | ≤ 0.1 | < 1 | COc1cc(OC2C(C)(C)C(NC(=O)c3ccc(N4CC(N5CCC(n6nc(N7CCCc8cc(-c9cnn(C)c9)c(C(F)F)cc87)c7c6CCN(C(C)=O)C7)CC5)C4)cc3)C2(C)C)ccc1C#N (stereo not shown) [Compound 310, 4-[3-[4-[5-acetyl-3-[7-(difluoromethyl)-6-(1-methylpyrazol-4-yl)-3,4-dihydro-2H-quinolin-1-yl]-6,7-dihydro-4H-pyrazolo[4,3-c]pyridin-1-yl]-1-piperidyl]azetidin-1-yl]-N-[3-(4-cyano-3-methoxy-phenoxy)-2,2,4,4-tetramethyl-cyclobutyl]benzamide]
11 | 0.1 to 1 | < 1 | COc1cc(OC2C(C)(C)C(NC(=O)c3ccc(N4CCC(N5CCC(n6nc(N7CCCc8cc(-c9cnn(C)c9)c(C(F)F)cc87)c7c6CCN(C(C)=O)C7)CC5)C(C)C4)cc3)C2(C)C)ccc1C#N (stereo not shown) [Compound 304, 4-[4-[4-[5-acetyl-3-[7-(difluoromethyl)-6-(1-methylpyrazol-4-yl)-3,4-dihydro-2H-quinolin-1-yl]-6,7-dihydro-4H-pyrazolo[4,3-c]pyridin-1-yl]-1-piperidyl]-3-methyl-1-piperidyl]-N-[3-(4-cyano-3-methoxy-phenoxy)-2,2,4,4-tetramethyl-cyclobutyl]benzamide]
